Assay results published in patent publication EP2295560A1, “Directed evolution of arginine deiminase for increased activity at physiological pH” (priority 2009, dated 2011).

Biological target: Pseudomonas plecoglossicida arginine deiminase (PpADI) variant M2 (K5T D44E H404R) (Pseudomonas plecoglossicida, UniProt A7LKB0, D44E/H404R/K5T)
Test: Determination of kcat and Km (citrulline colorimetric assay, purified enzyme)
Type: biochemical, Pseudomonas plecoglossicida CGMCC2039
Conditions: pH 7.4, conversion of arginine to citrulline, compared to wild type
Protocol: The kcat and Km values were determined from initial velocity data measured as a function of substrate concentration. Enzyme reaction was carried out at 37°C in a water bath. After 10 min preincubation at 37"C, the enzyme reaction was initiated by addition of purified enzyme (50 µl, 0.2-0.5 µM) to the substrate solution (200 µl, 0.2 mM to 10 mM of arginine, 0.5 M phosphate buffer, pH 7.4) in deep well plates. The reaction mixture was incubated (37°C) and every two minutes reaction mixture (30 µl) of each well was transferred to acid-ferric solution (30 µl) to stop the enzyme reaction. The color development was subsequently performed in 96-well PCR plate. Ferric-acid solution (90 µl) and DAM-TSC solution (15 µl) were added to each well. The 96-well PCR plate was then incubated (70°C, 30 min) in thermal cycler (Eppendorf Mastercyler gradient) for color development, followed by incubation in ice water to stop color development. Absorbance was measured at 530 nm using a microtiter plate reader (SPECTROstar Omega, BMG LABTECH, Offenburg, Germany). […] The kcat was calculated from the ratio of Vmax, and enzyme concentration. […]

Pseudomonas plecoglossicida arginine deiminase (PpADI) variant M2 (K5T D44E H404R), sequence (A7LKB0 whole entry D44E/H404R/K5T): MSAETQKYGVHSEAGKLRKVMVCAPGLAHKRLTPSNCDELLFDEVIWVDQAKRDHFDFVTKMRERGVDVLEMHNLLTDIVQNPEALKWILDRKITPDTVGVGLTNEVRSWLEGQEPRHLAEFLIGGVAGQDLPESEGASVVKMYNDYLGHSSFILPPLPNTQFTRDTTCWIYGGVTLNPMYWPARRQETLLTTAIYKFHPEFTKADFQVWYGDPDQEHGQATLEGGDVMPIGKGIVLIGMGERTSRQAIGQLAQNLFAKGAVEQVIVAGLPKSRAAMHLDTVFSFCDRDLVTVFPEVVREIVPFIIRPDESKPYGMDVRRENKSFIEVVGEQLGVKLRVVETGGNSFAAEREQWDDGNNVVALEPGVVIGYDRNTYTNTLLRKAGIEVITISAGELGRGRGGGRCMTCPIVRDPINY

Compound: N=C(N)NCCC[C@H](N)C(=O)O [arginine]
- kcat, fold higher than wild type PpADI: 4 fold
